ChEMBL document CHEMBL3045916, “Synthesis, characterization, biological evaluation and in silico screening of oxadiazinanones” (Med Chem Res, 2013)
Converted amounts (≈) assume the structure as drawn.

Tests used:
Staphylococcus aureus [1] = assay: Antibacterial activity against methicillin-resistant Staphylococcus aureus assessed as growth inhibition after 24 hr by disk diffusion method; assay type: functional
Pseudomonas aeruginosa [2] = assay: Antibacterial activity against Pseudomonas aeruginosa ATCC 9029 assessed as growth inhibition after 24 hr by disk diffusion method; assay type: functional
Escherichia coli [3] = assay: Antibacterial activity against Escherichia coli ATCC 25922 assessed as growth inhibition after 24 hr by disk diffusion method; assay type: functional
Candida albicans [4] = assay: Antifungal activity against Candida albicans ATCC 90028 assessed as growth inhibition after 48 hr by macro-dilution method; assay type: functional; details: ATCC 90028, 48 h
Pseudomonas aeruginosa [5] = assay: Antibacterial activity against Pseudomonas aeruginosa ATCC 9029 assessed as growth inhibition after 24 hr by macro-dilution method; assay type: functional; details: ATCC 9029, 24 h
Escherichia coli [6] = assay: Bactericidal activity against Escherichia coli ATCC 25922 after 18 to 24 hr; assay type: functional
[7] = system: Radical scavenging activity; assay: Antioxidant activity assessed as DPPH radical scavenging activity at 4 ug/mL after 30 min by spectrophotometric analysis relative to control; assay type: functional
Aspergillus fumigatus [8] = assay: Antifungal activity against Aspergillus fumigatus assessed as growth inhibition after 48 hr by agar disk diffusion method; assay type: functional
Talaromyces marneffei [9] = assay: Antifungal activity against Talaromyces marneffei assessed as growth inhibition after 48 hr by macro-dilution method; assay type: functional
Klebsiella pneumoniae [10] = assay: Antibacterial activity against Klebsiella pneumoniae clinical isolate assessed as growth inhibition after 24 hr by disk diffusion method; assay type: functional
[11] = system: Radical scavenging activity; assay: Antioxidant activity assessed as DPPH radical scavenging activity after 30 min by spectrophotometric analysis; assay type: functional
Aspergillus fumigatus [12] = assay: Antifungal activity against Aspergillus fumigatus assessed as growth inhibition after 48 hr by macro-dilution method; assay type: functional
Staphylococcus aureus [13] = assay: Antibacterial activity against methicillin-resistant Staphylococcus aureus assessed as growth inhibition after 24 hr by macro-dilution method; assay type: functional
[14] = system: Trichophyton mentagrophytes; assay: Antifungal activity against Trichophyton mentagrophytes assessed as growth inhibition after 48 hr by macro-dilution method; assay type: functional
[15] = system: Radical scavenging activity; assay: Antioxidant activity assessed as DPPH radical scavenging activity at 2 ug/mL after 30 min by spectrophotometric analysis relative to control; assay type: functional
[16] = system: Radical scavenging activity; assay: Antioxidant activity assessed as DPPH radical scavenging activity at 6 ug/mL after 30 min by spectrophotometric analysis relative to control; assay type: functional
Klebsiella pneumoniae [17] = assay: Antibacterial activity against Klebsiella pneumoniae clinical isolate assessed as growth inhibition after 24 hr by macro-dilution method; assay type: functional
Streptococcus pyogenes [18] = assay: Bactericidal activity against Streptococcus pyogenes clinical isolate after 18 to 24 hr; assay type: functional
Talaromyces marneffei [19] = assay: Antifungal activity against Talaromyces marneffei assessed as growth inhibition after 48 hr by agar disk diffusion method; assay type: functional
[20] = system: Trichophyton mentagrophytes; assay: Antifungal activity against Trichophyton mentagrophytes assessed as growth inhibition after 48 hr by agar disk diffusion method; assay type: functional
Streptococcus pyogenes [21] = assay: Antibacterial activity against Streptococcus pyogenes clinical isolate assessed as growth inhibition after 24 hr by macro-dilution method; assay type: functional
Pseudomonas aeruginosa [22] = assay: Bactericidal activity against Pseudomonas aeruginosa ATCC 9029 after 18 to 24 hr; assay type: functional
[23] = system: Radical scavenging activity; assay: Antioxidant activity assessed as DPPH radical scavenging activity at 8 ug/mL after 30 min by spectrophotometric analysis relative to control; assay type: functional
Streptococcus pyogenes [24] = assay: Antibacterial activity against Streptococcus pyogenes clinical isolate assessed as growth inhibition after 24 hr by disk diffusion method; assay type: functional
Klebsiella pneumoniae [25] = assay: Bactericidal activity against Klebsiella pneumoniae clinical isolate after 18 to 24 hr; assay type: functional
[26] = system: Trichophyton mentagrophytes; assay: Fungicidal activity against Trichophyton mentagrophytes after 48 hr; assay type: functional
Talaromyces marneffei [27] = assay: Fungicidal activity against Talaromyces marneffei after 48 hr; assay type: functional
Candida albicans [28] = assay: Fungicidal activity against Candida albicans ATCC 90028 after 48 hr; assay type: functional; details: ATCC 90028, 48 h
Staphylococcus aureus [29] = assay: Bactericidal activity against methicillin-resistant Staphylococcus aureus after 18 to 24 hr; assay type: functional
Aspergillus fumigatus [30] = assay: Fungicidal activity against Aspergillus fumigatus after 48 hr; assay type: functional
[31] = system: Radical scavenging activity; assay: Antioxidant activity assessed as DPPH radical scavenging activity at 10 ug/mL after 30 min by spectrophotometric analysis relative to control; assay type: functional
Candida albicans [32] = assay: Antifungal activity against Candida albicans ATCC 90028 assessed as growth inhibition after 48 hr by agar disk diffusion method; assay type: functional
Escherichia coli [33] = assay: Antibacterial activity against Escherichia coli ATCC 8739 assessed as growth inhibition after 24 hr by macro-dilution method; details: ATCC 8739, 24 h

| Compound | diameter of the inhibition zone (DIZ) (Staphylococcus aureus [1]) [mm] | diameter of the inhibition zone (DIZ) (Pseudomonas aeruginosa [2]) [mm] | diameter of the inhibition zone (DIZ) (Escherichia coli [3]) [mm] | MIC (Candida albicans [4]) [µg/mL] | Activity [7] [%] | diameter of the inhibition zone (DIZ) (Aspergillus fumigatus [8]) [mm] | MIC (Talaromyces marneffei [9]) [µg/mL] | IC50 [11] [µg/mL] | MIC (Aspergillus fumigatus [12]) [µg/mL] | MIC [14] [µg/mL] | Activity [15] [%] | Activity [16] [%] | diameter of the inhibition zone (DIZ) (Talaromyces marneffei [19]) [mm] | diameter of the inhibition zone (DIZ) [20] [mm] | Activity [23] [%] | MFC [26] [µg/mL] | MFC (Talaromyces marneffei [27]) [µg/mL] | MFC (Candida albicans [28]) [µg/mL] | MFC (Aspergillus fumigatus [30]) [µg/mL] | Activity [31] [%] | also measured |
| --- | --- | --- | --- | --- | --- | --- | --- | --- | --- | --- | --- | --- | --- | --- | --- | --- | --- | --- | --- | --- | --- |
| O=C(O)c1cn(C2CC2)c2cc(N3CCNCC3)c(F)cc2c1=O [CIPROFLOXACIN] | 21 | 31.5 | 27.5 |  |  |  |  |  |  |  |  |  |  |  |  |  |  |  |  |  |  |
| CC1(c2ccccc2)NNC(=O)CO1 (stereo not drawn) | 18.2 | 24.2 | 17.4 | 25 (≈ 130 µM) | 23.8 | 17.2 | 25 (≈ 130 µM) | 8.25 (≈ 42.9 µM) | 25 (≈ 130 µM) | 25 (≈ 130 µM) | 9.86 | 34.8 | 14.1 | 14.5 | 46.8 | 50 (≈ 260 µM) | 100 (≈ 520 µM) | 25 (≈ 130 µM) | 50 (≈ 260 µM) | 59.5 | MIC (Pseudomonas aeruginosa [5]): 25 µg/mL (≈ 130 µM); MBC (Escherichia coli [6]): 50 µg/mL (≈ 260 µM); diameter of the inhibition zone (DIZ) (Klebsiella pneumoniae [10]): 14.1 mm; MIC (Staphylococcus aureus [13]): 25 µg/mL (≈ 130 µM); MIC (Klebsiella pneumoniae [17]): 25 µg/mL (≈ 130 µM); MBC (Streptococcus pyogenes [18]): 50 µg/mL (≈ 260 µM); MIC (Streptococcus pyogenes [21]): 25 µg/mL (≈ 130 µM); MBC (Pseudomonas aeruginosa [22]): 100 µg/mL (≈ 520 µM); diameter of the inhibition zone (DIZ) (Streptococcus pyogenes [24]): 19.1 mm; MBC (Klebsiella pneumoniae [25]): 100 µg/mL (≈ 520 µM); MBC (Staphylococcus aureus [29]): 50 µg/mL (≈ 260 µM); diameter of the inhibition zone (DIZ) (Candida albicans [32]): 21.4 mm; MIC (Escherichia coli [33]): 25 µg/mL (≈ 130 µM) |
| CC1(c2ccc(O)cc2O)NNC(=O)CO1 (stereo not drawn) | 17.1 | 24.4 | 17.2 | 50 (≈ 223 µM) | 30.2 | 16.2 | 50 (≈ 223 µM) | 6.28 (≈ 28 µM) | 50 (≈ 223 µM) | 50 (≈ 223 µM) | 15.7 | 49 | 11.1 | 14.1 | 64 | 100 (≈ 446 µM) | > 100 | 100 (≈ 446 µM) | 100 (≈ 446 µM) | 81.1 | MIC (Pseudomonas aeruginosa [5]): 50 µg/mL (≈ 223 µM); MBC (Escherichia coli [6]): 100 µg/mL (≈ 446 µM); diameter of the inhibition zone (DIZ) (Klebsiella pneumoniae [10]): 14.1 mm; MIC (Staphylococcus aureus [13]): 50 µg/mL (≈ 223 µM); MIC (Klebsiella pneumoniae [17]): 50 µg/mL (≈ 223 µM); MBC (Streptococcus pyogenes [18]): 100 µg/mL (≈ 446 µM); MIC (Streptococcus pyogenes [21]): 50 µg/mL (≈ 223 µM); MBC (Pseudomonas aeruginosa [22]): > 100 µg/mL; diameter of the inhibition zone (DIZ) (Streptococcus pyogenes [24]): 18.1 mm; MBC (Klebsiella pneumoniae [25]): 100 µg/mL (≈ 446 µM); MBC (Staphylococcus aureus [29]): 100 µg/mL (≈ 446 µM); diameter of the inhibition zone (DIZ) (Candida albicans [32]): 20.2 mm; MIC (Escherichia coli [33]): 50 µg/mL (≈ 223 µM) |
| C[C@@H]1[C@H](O)[C@@H](C)/C=C/C=C/C=C/C=C/C=C/C=C/C=C/[C@H](O[C@@H]2O[C@H](C)[C@@H](O)[C@H](N)[C@@H]2O)C[C@@H]2O[C@](O)(C[C@@H](O)C[C@@H](O)[C@H](O)CC[C@@H](O)C[C@@H](O)CC(=O)O[C@H]1C)C[C@H](O)[C@H]2C(=O)O [AMPHOTERICIN B] |  |  |  | 6.25 (≈ 6.76 µM) |  | 26.5 | 12.5 (≈ 13.5 µM) |  | 12.5 (≈ 13.5 µM) | 6.25 (≈ 6.76 µM) |  |  | 21.5 | 23.5 |  | 25 (≈ 27.1 µM) | 25 (≈ 27.1 µM) | 25 (≈ 27.1 µM) | 25 (≈ 27.1 µM) |  | diameter of the inhibition zone (DIZ) (Candida albicans [32]): 30.5 mm |
| CC1(c2ccc(O)cc2)NNC(=O)CO1 (stereo not drawn) | 18.3 | 24.4 | 18.4 | 25 (≈ 120 µM) | 25.1 | 19.4 | 50 (≈ 240 µM) | 8.02 (≈ 38.5 µM) | 50 (≈ 240 µM) | 25 (≈ 120 µM) | 11.9 | 37.2 | 15.1 | 16.3 | 49 | 50 (≈ 240 µM) | 100 (≈ 480 µM) | 100 (≈ 480 µM) | 100 (≈ 480 µM) | 62.4 | MIC (Pseudomonas aeruginosa [5]): 25 µg/mL (≈ 120 µM); MBC (Escherichia coli [6]): 100 µg/mL (≈ 480 µM); diameter of the inhibition zone (DIZ) (Klebsiella pneumoniae [10]): 14.6 mm; MIC (Staphylococcus aureus [13]): 25 µg/mL (≈ 120 µM); MIC (Klebsiella pneumoniae [17]): 25 µg/mL (≈ 120 µM); MBC (Streptococcus pyogenes [18]): 50 µg/mL (≈ 240 µM); MIC (Streptococcus pyogenes [21]): 25 µg/mL (≈ 120 µM); MBC (Pseudomonas aeruginosa [22]): 100 µg/mL (≈ 480 µM); diameter of the inhibition zone (DIZ) (Streptococcus pyogenes [24]): 19.3 mm; MBC (Klebsiella pneumoniae [25]): 50 µg/mL (≈ 240 µM); MBC (Staphylococcus aureus [29]): 50 µg/mL (≈ 240 µM); diameter of the inhibition zone (DIZ) (Candida albicans [32]): 22.4 mm; MIC (Escherichia coli [33]): 50 µg/mL (≈ 240 µM) |
| O=C1O[C@H]([C@@H](O)CO)C(O)=C1O [ASCORBIC ACID] |  |  |  |  | 34.9 |  |  | 4.45 (≈ 25.3 µM) |  |  | 18.4 | 53.4 |  |  | 69.3 |  |  |  |  | 87 |  |
| CC1(c2cccc(O)c2)NNC(=O)CO1 (stereo not drawn) | 19.1 | 26.2 | 25.4 | 12.5 (≈ 60 µM) | 31.8 | 22.4 | 12.5 (≈ 60 µM) | 5.99 (≈ 28.8 µM) | 12.5 (≈ 60 µM) | 12.5 (≈ 60 µM) | 16.7 | 50.2 | 14.5 | 17.2 | 66.3 | 25 (≈ 120 µM) | 50 (≈ 240 µM) | 25 (≈ 120 µM) | 50 (≈ 240 µM) | 82.8 | MIC (Pseudomonas aeruginosa [5]): 12.5 µg/mL (≈ 60 µM); MBC (Escherichia coli [6]): 50 µg/mL (≈ 240 µM); diameter of the inhibition zone (DIZ) (Klebsiella pneumoniae [10]): 15.1 mm; MIC (Staphylococcus aureus [13]): 12.5 µg/mL (≈ 60 µM); MIC (Klebsiella pneumoniae [17]): 12.5 µg/mL (≈ 60 µM); MBC (Streptococcus pyogenes [18]): 25 µg/mL (≈ 120 µM); MIC (Streptococcus pyogenes [21]): 12.5 µg/mL (≈ 60 µM); MBC (Pseudomonas aeruginosa [22]): 25 µg/mL (≈ 120 µM); diameter of the inhibition zone (DIZ) (Streptococcus pyogenes [24]): 19.4 mm; MBC (Klebsiella pneumoniae [25]): 25 µg/mL (≈ 120 µM); MBC (Staphylococcus aureus [29]): 25 µg/mL (≈ 120 µM); diameter of the inhibition zone (DIZ) (Candida albicans [32]): 25.5 mm; MIC (Escherichia coli [33]): 12.5 µg/mL (≈ 60 µM) |
